Patent US7309713B2, “Use of the non-opiate analgesic drug flupirtine for the treatment of overactive bladder and associated diseases including urge incontinence, urinary flow problems as a result of prostate hyperplasia and irritable bowel syndrome” (priority 2005, dated 2007)

How the values were obtained:
[1] = test system: bladder instability after partial ligation of the proximal urethra; assay: bladder hyperactivity/detrusor instability induced by chronic partial outflow obstruction; format: in vivo, rats; conditions: cystometry, 6 weeks after partial ligation
From the text: A different model of bladder hyperactivity/detrusor instability induced by chronic partial outflow obstruction is also useful to evaluate the efficacy of a compound. Partial obstruction is achieved using partial ligation of the proximal urethra in rats. […] This can be recorded using cystometry. This model more closely resembles the situation during prostate hyperplasia and other diseases resulting in outflow obstruction. Flupirtine is also active in this model.

[2] = test system: mean arterial blood pressure; assay: mean arterial blood pressure recorded in the urethane anaesthetised rats of the bladder model; conditions: summary over the doses tested
Description: The body temperature was maintained at 37° C. by means of an heated small operating table and 2 red light heating lamps. The left carotid artery was prepared and a catheter for continuous blood pressure measurement was inserted and connected to a Statham pressure transducer (Model P23 Db) and connected with a computer-controlled physiological recorder (PMS PR 800, Mumed Systems Ltd London, GB).
For intraduodenal drug administration a polyethylene catheter was inserted into the upper part of the duodenum, about 5 cm downwards from the pylorus and fixed with a purse-string suture. Bilateral ureters were ligated proximally to the bladder to prevent the bladder filling with urine. Urine of the kidneys was drained onto cotton swabs within the abdomen. The urinary bladder was catheterised via the urethra by use of PE 50 polyethylene tubing filled with physiological saline and secured in place by a ligature at the lower part of the urethra. Using a “T”-connector, the bladder catheter was connected to a Statham pressure transducer (Model P23 Db) connected with the physiological recorder (PMS PR 800) to measure intravesicular pressure and to a Infusion pump (TSE, FRG). Continuous recordings of intravesicular pressure and arterial blood pressure were captured onto a 4 channel Linearcorder WR3310 (Western Graphtec, Inc., USA). The experiment was started infusing (0.05 ml/min) the bladder with warmed saline (37-38° C.) to evoke rhythmic bladder contractions by means an infusion pump up to a maximal volume of 1.0 ml. The infusion is stopped after reaching the final volume or with the start of rhythmic bladder contractions.

[3] = test system: volume-induced rhythmic urinary bladder contractions; assay: volume-induced rhythmic urinary bladder contractions in urethane anaesthetised rats (rat model of overactive bladder); format: in vivo, Sprague Dawley rat
From the text: In the search for new drugs compounds are of interest which affect the central nervous system circuits involved in micturation as well as the peripheral nerves resulting in a decrease in the frequency of the voiding reflex without any effect on bladder contractility. […] The method utilises spontaneous, volume-induced contractions of the urinary bladder in anaesthetised rats and was developed and first described by Dray (J. Pharmacol. Meth. 13:157-165, 1985) to assess the central activity of substances with opioid properties on bladder function. As this model clearly mimics the interplay between smooth muscle function and neuronal control thereof, this model can be also used to predict drug effects in a different disease, i.e. irritable bowl syndrome (IBS).
Aim of the study: To characterise the effects of the analgesic flupirtine maleate on the bladder function we used the model volume-induced contractions of urinary bladder in urethane anaesthetised rats. […] The compounds at the dose range 0.1-10 mg/kg were intraduodenally administered to anaesthetised rats. The intraduodenal route was chosen to mimic the oral route and to avoid the use of solvents necessary for intravenous administration.
• Species: Sprague Dawley rat • Sex: Female • Body weight: 200-270 g • Breeder: Charles River, Sulzfeld • Food/Tap water: pellets, ssniff M/R15, ad libitum, Spezialdiäten GmbH, Soest/Wesffalen, FRG • Conditions in animal housing: Rats were kept conventionally in groups of 6 in macrolon cages No. 4. • Room temperature: 20-24° C. • Relative humidity: 40-70%, deviations from the maximum range caused during cleaning procedure are possible • Light/Dark rhythm: 12/12 h light/dark cycle, light on at 6:00 a.m.
The food was withdrawn 16 hours before intraduodenal drug administration. Tap water was available ad libitum.
Flupirtine maleate or oxybutynin hydrochloride were suspended in hydroxyethylcellulose (0.5%) in demineralised water. The substances were ground in a mortar with pistil. The suspensions were placed on a magnetic stirrer before and during dosing procedures. The substances were freshly prepared in the morning and applied intraduodenally in a volume of 0.4 ml/100 g body weight. Control rats received hydroxyethylcellulose (0.5%) i.d.
The filling material, consisting of small globules, was ground in a mortar with pistil. Thereafter the grounded material was suspended in hydroxyethylcellulose (0.5%) in demineralised water. The suspensions were placed on a magnetic stirrer before and during dosing procedures for 10 minutes. The suspensions were freshly prepared in the morning and applied intraduodenally in a volume of 0.4 ml/100 g body weight to rats. Control rats received the same amount of hydroxyethylcellulose (0.5%) i.d.
The continuous registration lasted 1 hr. […] The frequency was evaluated for 10 min before (baseline) and within the observation period in intervals of 10 minutes starting 5, 20, 35 and 50 min after drug administration. For intraduodenal dosing, drugs were administered via a duodenal polyethylene tube to animals in aqueous suspension of 0.5% hydroxyethylcellulose.

[4] = test system: isolated organ strips of rat bladder; assay: isolated organ strips of rat bladder contracted with potassium chloride (40 mM); conditions: read-out: IC50, concentration needed to counteract the contractile response of potassium chloride by 50%, isolated organ bath
Description: Flupirtine was also tested in an in vitro model of detrusor muscle activity. In this model, isolated organ strips of rat bladder was introduced in an isolated organ bath system. […] In this model, flupirtine did show some activity, but the concentration needed to relax the bladder strip was rather high. […] Direct effects on the bladder wall may be of limited relevance for the pharmacological effect. Indeed, this is in line with the observation that the contraction force of the detrusor in above mentioned in vivo models was not influenced at doses which clearly had pharmacological effects on micturation frequency.

CCOC(=O)Nc1ccc(NCc2ccc(F)cc2)nc1N [flupirtine, 2-amino-3-carbethoxyamino-6-(4-fluorobenzylamino)-pyridine]
activity in the chronic partial outflow obstruction model [1]: active | effect on peripheral blood pressure [2]: not cause any effect | fold higher activity in the bladder model than in the analgesia tests ([3]; compared with analgesic ED50 values): 3-10 fold | intraduodenal dose at which the first effects became visible ([3]; intraduodenal): 3 mg/kg | IC50 [4]: 7.5 µM
